Assay results from ChEMBL document CHEMBL1152441, “Discovery of [18F]N-(2-(diethylamino)ethyl)-6-fluoronicotinamide: a melanoma positron emission tomography imaging radiotracer with high tumor to body contrast ratio and rapid renal clearance” (J Med Chem, 2009).

Tests used:
[1] = Biodistribution in eye of mouse B16F0 cells implanted C57BL/6J mouse assessed per gram of tissue at 0.4 to 5.5 MBq, iv after 6 hrs by gamma counter; format: ADME, organism-based; settings: in vivo
[2] = Biodistribution in eye of mouse B16F0 cells implanted C57BL/6J mouse assessed per gram of tissue at 0.4 to 5.5 MBq, iv after 3 hrs by gamma counter; format: ADME, organism-based; settings: in vivo
Thyroid gland [3] = experiment: Biodistribution in thyroid of mouse B16F0 cells implanted C57BL/6J mouse assessed per gram of tissue at 0.4 to 5.5 MBq, iv after 2 hrs by gamma counter; format: ADME, organism-based; settings: in vivo
[4] = Lipophilicity, log P at pH 7.5; format: physicochemical; settings: buffer
Intestine [5] = experiment: Biodistribution in intestine of mouse B16F0 cells implanted C57BL/6J mouse assessed per gram of tissue at 0.4 to 5.5 MBq, iv after 0.5 hrs by gamma counter; format: ADME, organism-based; settings: in vivo
Stomach [6] = experiment: Biodistribution in stomach of mouse B16F0 cells implanted C57BL/6J mouse assessed per gram of tissue at 0.4 to 5.5 MBq, iv after 1 hr by gamma counter; format: ADME, organism-based; settings: in vivo
Lung [7] = experiment: Biodistribution in lung of mouse B16F0 cells implanted C57BL/6J mouse assessed per gram of tissue at 0.4 to 5.5 MBq, iv after 2 hrs by gamma counter; format: ADME, organism-based; settings: in vivo
Stomach [8] = experiment: Biodistribution in stomach of mouse B16F0 cells implanted C57BL/6J mouse assessed per gram of tissue at 0.4 to 5.5 MBq, iv after 0.25 hrs by gamma counter; format: ADME, organism-based; settings: in vivo
Spleen [9] = experiment: Biodistribution in spleen of mouse B16F0 cells implanted C57BL/6J mouse assessed per gram of tissue at 0.4 to 5.5 MBq, iv after 2 hrs by gamma counter; format: ADME, organism-based; settings: in vivo
Bone [10] = experiment: Biodistribution in bone of mouse B16F0 cells implanted C57BL/6J mouse assessed per gram of tissue at 0.4 to 5.5 MBq, iv after 0.25 hrs by gamma counter; format: ADME, organism-based, Bone element; settings: in vivo
[11] = Biodistribution in eye of mouse B16F0 cells implanted C57BL/6J mouse assessed per gram of tissue at 0.4 to 5.5 MBq, iv after 1 hr by gamma counter; format: ADME, organism-based; settings: in vivo
[12] = Biodistribution in tumor of mouse B16F0 cells implanted C57BL/6J mouse assessed per gram of tissue at 0.4 to 5.5 MBq, iv after 2 hrs by gamma counter; format: ADME, organism-based, Neoplasm; settings: in vivo
Lung [13] = experiment: Biodistribution in lung of mouse B16F0 cells implanted C57BL/6J mouse assessed per gram of tissue at 0.4 to 5.5 MBq, iv after 6 hrs by gamma counter; format: ADME, organism-based; settings: in vivo
[14] = Biodistribution in tumor of mouse B16F0 cells implanted C57BL/6J mouse assessed per gram of tissue at 0.4 to 5.5 MBq, iv after 1 hr by gamma counter; format: ADME, organism-based, Neoplasm; settings: in vivo
Intestine [15] = experiment: Biodistribution in intestine of mouse B16F0 cells implanted C57BL/6J mouse assessed per gram of tissue at 0.4 to 5.5 MBq, iv after 0.25 hrs by gamma counter; format: ADME, organism-based; settings: in vivo
Bone [16] = experiment: Biodistribution in bone of mouse B16F0 cells implanted C57BL/6J mouse assessed per gram of tissue at 0.4 to 5.5 MBq, iv after 1 hr by gamma counter; format: ADME, organism-based, Bone element; settings: in vivo
Spleen [17] = experiment: Biodistribution in spleen of mouse B16F0 cells implanted C57BL/6J mouse assessed per gram of tissue at 0.4 to 5.5 MBq, iv after 0.5 hrs by gamma counter; format: ADME, organism-based; settings: in vivo
Stomach [18] = experiment: Biodistribution in stomach of mouse B16F0 cells implanted C57BL/6J mouse assessed per gram of tissue at 0.4 to 5.5 MBq, iv after 2 hrs by gamma counter; format: ADME, organism-based; settings: in vivo
Intestine [19] = experiment: Biodistribution in intestine of mouse B16F0 cells implanted C57BL/6J mouse assessed per gram of tissue at 0.4 to 5.5 MBq, iv after 3 hrs by gamma counter; format: ADME, organism-based; settings: in vivo
Bone [20] = experiment: Biodistribution in bone of mouse B16F0 cells implanted C57BL/6J mouse assessed per gram of tissue at 0.4 to 5.5 MBq, iv after 2 hrs by gamma counter; format: ADME, organism-based, Bone element; settings: in vivo
[21] = Biodistribution in eye of mouse B16F0 cells implanted C57BL/6J mouse assessed per gram of tissue at 0.4 to 5.5 MBq, iv after 2 hrs by gamma counter; format: ADME, organism-based; settings: in vivo
Spleen [22] = experiment: Biodistribution in spleen of mouse B16F0 cells implanted C57BL/6J mouse assessed per gram of tissue at 0.4 to 5.5 MBq, iv after 6 hrs by gamma counter; format: ADME, organism-based; settings: in vivo
Lung [23] = experiment: Biodistribution in lung of mouse B16F0 cells implanted C57BL/6J mouse assessed per gram of tissue at 0.4 to 5.5 MBq, iv after 1 hr by gamma counter; format: ADME, organism-based; settings: in vivo
Spleen [24] = experiment: Biodistribution in spleen of mouse B16F0 cells implanted C57BL/6J mouse assessed per gram of tissue at 0.4 to 5.5 MBq, iv after 3 hrs by gamma counter; format: ADME, organism-based; settings: in vivo
Lung [25] = experiment: Biodistribution in lung of mouse B16F0 cells implanted C57BL/6J mouse assessed per gram of tissue at 0.4 to 5.5 MBq, iv after 3 hrs by gamma counter; format: ADME, organism-based; settings: in vivo
Thyroid gland [26] = experiment: Biodistribution in thyroid of mouse B16F0 cells implanted C57BL/6J mouse assessed per gram of tissue at 0.4 to 5.5 MBq, iv after 6 hrs by gamma counter; format: ADME, organism-based; settings: in vivo
Thyroid gland [27] = experiment: Biodistribution in thyroid of mouse B16F0 cells implanted C57BL/6J mouse assessed per gram of tissue at 0.4 to 5.5 MBq, iv after 0.25 hrs by gamma counter; format: ADME, organism-based; settings: in vivo
Spleen [28] = experiment: Biodistribution in spleen of mouse B16F0 cells implanted C57BL/6J mouse assessed per gram of tissue at 0.4 to 5.5 MBq, iv after 0.25 hrs by gamma counter; format: ADME, organism-based; settings: in vivo
Spleen [29] = experiment: Biodistribution in spleen of mouse B16F0 cells implanted C57BL/6J mouse assessed per gram of tissue at 0.4 to 5.5 MBq, iv after 1 hr by gamma counter; format: ADME, organism-based; settings: in vivo
[30] = Biodistribution in eye of mouse B16F0 cells implanted C57BL/6J mouse assessed per gram of tissue at 0.4 to 5.5 MBq, iv after 0.5 hrs by gamma counter; format: ADME, organism-based; settings: in vivo
Lung [31] = experiment: Biodistribution in lung of mouse B16F0 cells implanted C57BL/6J mouse assessed per gram of tissue at 0.4 to 5.5 MBq, iv after 0.5 hrs by gamma counter; format: ADME, organism-based; settings: in vivo
Intestine [32] = experiment: Biodistribution in intestine of mouse B16F0 cells implanted C57BL/6J mouse assessed per gram of tissue at 0.4 to 5.5 MBq, iv after 1 hr by gamma counter; format: ADME, organism-based; settings: in vivo
Bone [33] = experiment: Biodistribution in bone of mouse B16F0 cells implanted C57BL/6J mouse assessed per gram of tissue at 0.4 to 5.5 MBq, iv after 0.5 hrs by gamma counter; format: ADME, organism-based, Bone element; settings: in vivo
Bone [34] = experiment: Biodistribution in bone of mouse B16F0 cells implanted C57BL/6J mouse assessed per gram of tissue at 0.4 to 5.5 MBq, iv after 3 hrs by gamma counter; format: ADME, organism-based, Bone element; settings: in vivo
Thyroid gland [35] = experiment: Biodistribution in thyroid of mouse B16F0 cells implanted C57BL/6J mouse assessed per gram of tissue at 0.4 to 5.5 MBq, iv after 0.5 hrs by gamma counter; format: ADME, organism-based; settings: in vivo
[36] = Biodistribution in tumor of mouse B16F0 cells implanted C57BL/6J mouse assessed per gram of tissue at 0.4 to 5.5 MBq, iv after 0.5 hrs by gamma counter; format: ADME, organism-based, Neoplasm; settings: in vivo
Bone [37] = experiment: Biodistribution in bone of mouse B16F0 cells implanted C57BL/6J mouse assessed per gram of tissue at 0.4 to 5.5 MBq, iv after 6 hrs by gamma counter; format: ADME, organism-based, Bone element; settings: in vivo
Stomach [38] = experiment: Biodistribution in stomach of mouse B16F0 cells implanted C57BL/6J mouse assessed per gram of tissue at 0.4 to 5.5 MBq, iv after 3 hrs by gamma counter; format: ADME, organism-based; settings: in vivo
Stomach [39] = experiment: Biodistribution in stomach of mouse B16F0 cells implanted C57BL/6J mouse assessed per gram of tissue at 0.4 to 5.5 MBq, iv after 0.5 hrs by gamma counter; format: ADME, organism-based; settings: in vivo
Stomach [40] = experiment: Biodistribution in stomach of mouse B16F0 cells implanted C57BL/6J mouse assessed per gram of tissue at 0.4 to 5.5 MBq, iv after 6 hrs by gamma counter; format: ADME, organism-based; settings: in vivo
[41] = Biodistribution in tumor of mouse B16F0 cells implanted C57BL/6J mouse assessed per gram of tissue at 0.4 to 5.5 MBq, iv after 6 hrs by gamma counter; format: ADME, organism-based, Neoplasm; settings: in vivo
[42] = Biodistribution in eye of mouse B16F0 cells implanted C57BL/6J mouse assessed per gram of tissue at 0.4 to 5.5 MBq, iv after 0.25 hrs by gamma counter; format: ADME, organism-based; settings: in vivo
Thyroid gland [43] = experiment: Biodistribution in thyroid of mouse B16F0 cells implanted C57BL/6J mouse assessed per gram of tissue at 0.4 to 5.5 MBq, iv after 3 hrs by gamma counter; format: ADME, organism-based; settings: in vivo
Intestine [44] = experiment: Biodistribution in intestine of mouse B16F0 cells implanted C57BL/6J mouse assessed per gram of tissue at 0.4 to 5.5 MBq, iv after 2 hrs by gamma counter; format: ADME, organism-based; settings: in vivo
Intestine [45] = experiment: Biodistribution in intestine of mouse B16F0 cells implanted C57BL/6J mouse assessed per gram of tissue at 0.4 to 5.5 MBq, iv after 6 hrs by gamma counter; format: ADME, organism-based; settings: in vivo
Thyroid gland [46] = experiment: Biodistribution in thyroid of mouse B16F0 cells implanted C57BL/6J mouse assessed per gram of tissue at 0.4 to 5.5 MBq, iv after 1 hr by gamma counter; format: ADME, organism-based; settings: in vivo
[47] = Biodistribution in tumor of mouse B16F0 cells implanted C57BL/6J mouse assessed per gram of tissue at 0.4 to 5.5 MBq, iv after 3 hrs by gamma counter; format: ADME, organism-based, Neoplasm; settings: in vivo
Lung [48] = experiment: Biodistribution in lung of mouse B16F0 cells implanted C57BL/6J mouse assessed per gram of tissue at 0.4 to 5.5 MBq, iv after 0.25 hrs by gamma counter; format: ADME, organism-based; settings: in vivo
[49] = Biodistribution in tumor of mouse B16F0 cells implanted C57BL/6J mouse assessed per gram of tissue at 0.4 to 5.5 MBq, iv after 0.25 hrs by gamma counter; format: ADME, organism-based, Neoplasm; settings: in vivo

- Drug uptake [1]: 15.6%
- Drug uptake [2]: 17.3%
- Drug uptake (Thyroid gland [3]): 0.61%
- logD [4]: 1.1
- Drug uptake (Intestine [5]): 3.9%
- Drug uptake (Stomach [6]): 3.4%
- Drug uptake (Lung [7]): 0.38%
- Drug uptake (Stomach [8]): 9.4%
- Drug uptake (Spleen [9]): 1.8%
- Drug uptake (Bone [10]): 3.5%
- Drug uptake [11]: 18.8%
- Drug uptake [12]: 9.4%
- Drug uptake (Lung [13]): 0.07%
- Drug uptake [14]: 8.4%
- Drug uptake (Intestine [15]): 5.4%
- Drug uptake (Bone [16]): 1.4%
- Drug uptake (Spleen [17]): 7.2%
- Drug uptake (Stomach [18]): 1.5%
- Drug uptake (Intestine [19]): 0.54%
- Drug uptake (Bone [20]): 0.58%
- Drug uptake [21]: 17.3%
- Drug uptake (Spleen [22]): 0.47%
- Drug uptake (Lung [23]): 1.6%
- Drug uptake (Spleen [24]): 0.89%
- Drug uptake (Lung [25]): 0.25%
- Drug uptake (Thyroid gland [26]): 0.17%
- Drug uptake (Thyroid gland [27]): 5.5%
- Drug uptake (Spleen [28]): 8.6%
- Drug uptake (Spleen [29]): 2.4%
- Drug uptake [30]: 16%
- Drug uptake (Lung [31]): 2.9%
- Drug uptake (Intestine [32]): 2.1%
- Drug uptake (Bone [33]): 2.1%
- Drug uptake (Bone [34]): 0.62%
- Drug uptake (Thyroid gland [35]): 2.5%
- Drug uptake [36]: 8.6%
- Drug uptake (Bone [37]): 0.52%
- Drug uptake (Stomach [38]): 0.83%
- Drug uptake (Stomach [39]): 6.6%
- Drug uptake (Stomach [40]): 0.19%
- Drug uptake [41]: 7.7%
- Drug uptake [42]: 14.7%
- Drug uptake (Thyroid gland [43]): 0.49%
- Drug uptake (Intestine [44]): 0.71%
- Drug uptake (Intestine [45]): 0.13%
- Drug uptake (Thyroid gland [46]): 3.3%
- Drug uptake [47]: 7.8%
- Drug uptake (Lung [48]): 5.6%
- Drug uptake [49]: 7%
SMILES: CCN(CC)CCNC(=O)c1ccc([18F])nc1
